{
  "source": "patent US10471035B2",
  "about": "“Compositions and methods for using esters of meroterpenes and of other resveratrol analogues” (Sunny BioDiscovery, priority 2014, dated 2019)",
  "key": {"[1]": {"tested_on": "UVA-irradiated epidermal substitutes cultured on adult fibroblast monolayer", "experiment": "Gene expression in UVA-irradiated epidermal substitutes; GEO matching", "type": "cell-based", "description": "(GSE: GEO Series; GPL: GEO Platforms; stats between −0.05 and 0.05 considered not significant match).\n(GSE: GEO Series; GPL: GEO Platforms; stats between −0.05 and 0.05 considered not a significant match)."}, "[2]": {"experiment": "UVB irradiation, HPLC-MS profile", "type": "physicochemical", "description": "Both compounds were irradiated with UVB light and their HPLC-MS profile was compared to their respective non-irradiated controls. FIGS. 2, 3, 6, and 7 show HPLC chromatograms of UVB-irradiated (lower portions) and non-irradiated samples (upper portions) of bakuchiol (FIGS. 2 and 3) and SBD.SE (FIGS. 6 and 7) detected at 254 nm (FIGS. 2 and 6) and 230 nm (FIGS. 3 and 7)."}},
  "data": [
    {"smiles": "C=C[C@@](C)(/C=C/c1ccc(OC(=O)c2ccccc2O)cc1)CCC=C(C)C", "note": "[SBD.SE, Salicylic acid ester of bakuchiol]", "values": [
      {"measurement": "GEO match Stat", "setting": "[1]; vitro122 keratinocytes PD98059 24/48 HRS -VS- keratinocytes untreated (GSE50591/GPL571), not matching retinol palmitate", "result": "−0.082"},
      {"measurement": "GEO match Stat", "setting": "[1]; vitro124 keratinocytes SP60125 SB203580 PD98059 24/48 HRS -VS- keratinocytes untreated (GSE50591/GPL571), not matching retinol palmitate", "result": "−0.116"},
      {"measurement": "GEO match Stat", "setting": "[1]; vitro128 keratinocytes mitomycin C 18 hrs -VS- keratincytes untreated (GSE50568/GPL570), not matching retinol palmitate", "result": "−0.147"},
      {"measurement": "GEO match Stat", "setting": "[1]; vitro129 keratinocytes N/Tert immortalized -VS- keratinocytes empty vector (GSE50568/GPL570)", "result": 0.105},
      {"measurement": "GEO match Stat", "setting": "[1]; vitro131 reconstituted epidermis scabies mite extract -VS- reconstituted epidermis untreated (GSE48459/GPL6244)", "result": "−0.105"},
      {"measurement": "GEO match Stat", "setting": "[1]; vitro132 HaCaT keratinocytes cidofovir -VS- HaCaT keratinocytes untreated (GSE39293/GPL570)", "result": "−0.116"},
      {"measurement": "GEO match Stat", "setting": "[1]; vitro134 keratinocytes keloid -VS- keratinocytes uninvolved (GSE44270/GPL6244)", "result": 0.153},
      {"measurement": "GEO match Stat", "setting": "[1]; vitro137 N/TERT-1 keratinocytes miR-198 -VS- N/TERT-1 keratinocytes control (GSE37967/GPL10558)", "result": 0.197},
      {"measurement": "GEO match Stat", "setting": "[1]; vitro139 HaCaT keratinocytes miR-483-3p overexpression -VS- HaCaT keratinocytes control (GSE19931/GPL1456)", "result": "−0.08"},
      {"measurement": "GEO match Stat", "setting": "[1]; vitro145 HaCaT keratinocytes cobalt(II) chloride 3 hrs -VS- HaCaT keratinocytes water control (GSE16727/GPL4133)", "result": 0.1},
      {"measurement": "GEO match Stat", "setting": "[1]; vitro147 HaCaT keratinocytes tungsten carbide cobalt 3 days -VS- HaCaT keratinocytes water control (GSE16727/GPL4133), not matching retinol palmitate", "result": 0.09},
      {"measurement": "GEO match Stat", "setting": "[1]; vitro148 HaCaT keratinocytes cobalt(II) chloride 3 hrs -VS- HaCaT keratinocytes water control (GSE16727/GPL4133)", "result": 0.122},
      {"measurement": "GEO match Stat", "setting": "[1]; vitro150 reconstituted epidermis 0 hrs after 10 cGy radiation -VS- reconstituted epidermis control (GSE29344/GPL6883)", "result": "−0.073"},
      {"measurement": "GEO match Stat", "setting": "[1]; vitro151 reconstituted epidermis 3 hrs after 10 cGy radiation -VS- reconstituted epidermis control (GSE29344/GPL6883)", "result": "−0.088"},
      {"measurement": "GEO match Stat", "setting": "[1]; vitro152 reconstituted epidermis 8 hrs after 10 cGy radiation -VS- reconstituted epidermis control (GSE29344/GPL6883)", "result": "−0.078"},
      {"measurement": "GEO match Stat", "setting": "[1]; vitro153 reconstituted epidermis 24 hrs after 10 cGy radiation -VS- reconstituted epidermis control (GSE29344/GPL6883)", "result": "−0.154"},
      {"measurement": "GEO match Stat", "setting": "[1]; vitro156 reconstituted epidermis 8 hrs after 100 cGy radiation -VS- reconstituted epidermis control (GSE29344/GPL6883)", "result": "−0.119"},
      {"measurement": "GEO match Stat", "setting": "[1]; vitro160 HaCaT keratinocytes 5′-aza-2-deoxycytidine -VS- HaCaT keratinocytes untreated (GSE33493/GPL6883), not matching retinol palmitate", "result": "−0.098"},
      {"measurement": "GEO match Stat", "setting": "[1]; vitro165 HaCaT keratinocytes Ino-C2-PAF + IL1A + IL17 + IL22 + TNF + OsM -VS- HaCaT keratinocytes untreated (GSE37361/GPL13607)", "result": "−0.119"},
      {"measurement": "GEO match Stat", "setting": "[1]; vivo1 PP skin -VS- PN skin (GSE2737/GPL91), not matching retinol palmitate", "result": 0.085},
      {"measurement": "GEO match Stat", "setting": "[1]; vivo6 PP skin -VS- PN skin (GSE26866/GPL571), not matching retinol palmitate", "result": 0.127},
      {"measurement": "GEO match Stat", "setting": "[1]; vivo7 PP skin -VS- PN skin (GSE30999/GPL570), not matching retinol palmitate", "result": 0.115},
      {"measurement": "GEO match Stat", "setting": "[1]; vivo8 PP skin -VS- NN skin (GSE13355/GPL570), not matching retinol palmitate", "result": 0.123},
      {"measurement": "GEO match Stat", "setting": "[1]; vivo9 PP skin -VS- NN skin (GSE14905/GPL570), not matching retinol palmitate", "result": 0.132},
      {"measurement": "GEO match Stat", "setting": "[1]; vivo12 PP epidermis -VS- PN epidermis (GSE26866/GPL571), not matching retinol palmitate", "result": 0.084},
      {"measurement": "GEO match Stat", "setting": "[1]; vivo15 PP skin 1 wk etanercept -VS- PN skin baseline (GSE11903/GPL571), not matching retinol palmitate", "result": 0.108},
      {"measurement": "GEO match Stat", "setting": "[1]; vivo19 PP skin etanercept 1 wk -VS- PP skin baseline (GSE11903/GPL571), not matching retinol palmitate", "result": "−0.134"},
      {"measurement": "GEO match Stat", "setting": "[1]; vivo25 PN skin IFNg-treated 24 hrs -VS- PN skin baseline (GSE32407/GPL571)", "result": "−0.11"},
      {"measurement": "GEO match Stat", "setting": "[1]; vivo26 PN skin IFNg-treated 24 hrs -VS- PN skin placebo 24 hrs (GSE32407/GPL571)", "result": "−0.119"},
      {"measurement": "GEO match Stat", "setting": "[1]; vivo27 NN skin IFNg-treated 24 hrs -VS- NN skin baseline (GSE32407/GPL571)", "result": "−0.09"},
      {"measurement": "GEO match Stat", "setting": "[1]; vivo32 atopic dermatitis uninvolved epidermis -VS- NN epidermis (GSE26952/GPL2700)", "result": 0.098},
      {"measurement": "GEO match Stat", "setting": "[1]; vivo42 atopic dermatitis lesion -VS- NN skin (GSE5667/GPL96 + GPL97)", "result": 0.11},
      {"measurement": "GEO match Stat", "setting": "[1]; vivo43 atopic dermatitis lesion -VS- uninvolved skin (GSE5667/GPL96 + GPL97)", "result": 0.111},
      {"measurement": "GEO match Stat", "setting": "[1]; vivo49 epidermis sodium lauryl sulphate 11 days -VS- epidermis basline (GSE18206/GPL570)", "result": 0.152},
      {"measurement": "GEO match Stat", "setting": "[1]; vivo50 epidermis nonanoic acid 30 min -VS- epidermis basline (GSE18206/GPL570)", "result": 0.125},
      {"measurement": "GEO match Stat", "setting": "[1]; vivo51 epidermis nonanoic acid 4 hrs -VS- epidermis basline (GSE18206/GPL570)", "result": 0.103},
      {"measurement": "GEO match Stat", "setting": "[1]; vivo53 epidermis nonanoic acid 11 days -VS- epidermis basline (GSE18206/GPL570)", "result": 0.17},
      {"measurement": "GEO match Stat", "setting": "[1]; vivo59 wound margin 7+ days healed -VS- NN skin (GSE8056/GPL570), not matching retinol palmitate", "result": 0.094},
      {"measurement": "GEO match Stat", "setting": "[1]; vivo73 skin diffuse cutaneous systemic sclerosis -VS- NN skin (GSE32413/GPL4133), not matching retinol palmitate", "result": 0.088},
      {"measurement": "GEO match Stat", "setting": "[1]; vivo76 skin isotretinoin 8 wks -VS- skin baseline (GSE11792/GPL571), not matching retinol palmitate", "result": "−0.128"},
      {"measurement": "GEO match Stat", "setting": "[1]; vivo82 skin Haemophilus ducreyi infected -VS- skin PBS treated (GSE5547/GPL570)", "result": "−0.105"},
      {"measurement": "GEO match Stat", "setting": "[1]; vivo83 basal cell carcinoma -VS- NN skin (GSE7553/GPL570), not matching retinol palmitate", "result": 0.081},
      {"measurement": "GEO match Stat", "setting": "[1]; vivo85 squamous cell carcinoma -VS- NN skin (GSE7553/GPL570), not matching retinol palmitate", "result": 0.12},
      {"measurement": "GEO match Stat", "setting": "[1]; vivo88 squamous cell carcinoma -VS- NN skin (GSE2503/GPL96), not matching retinol palmitate", "result": 0.111},
      {"measurement": "GEO match Stat", "setting": "[1]; vivo93 melanoma in situ -VS- NN skin (GSE4587/GPL570), not matching retinol palmitate", "result": 0.102},
      {"measurement": "GEO match Stat (inverse correlation with SBD.SE effect)", "setting": "[1]; vivo99 UVB radiation 1 minimal erythema dose -VS- untreated skin (GSE22083/GPL96)", "result": "−0.088"},
      {"measurement": "GEO match Stat (inverse correlation with SBD.SE effect)", "setting": "[1]; vivo100 UVB radiation 100 J/m2 -VS- untreated skin (GSE22083/GPL96)", "result": "−0.102"},
      {"measurement": "GEO match Stat (inverse correlation with SBD.SE effect)", "setting": "[1]; vivo101 UVA radiation 0.1 minimal erythema dose -VS- untreated skin (GSE22083/GPL96)", "result": "−0.096"},
      {"measurement": "GEO match Stat", "setting": "[1]; vivo110 reticular dermis -VS- NN Skin (GSE42114/GPL570), not matching retinol palmitate", "result": "−0.074"},
      {"measurement": "GEO match Stat", "setting": "[1]; vivo114 dermatomyositis -VS- NN Skin (GSE46239/GPL570)", "result": 0.116},
      {"measurement": "GEO match Stat", "setting": "[1]; vivo115 seborrheic keratosis -VS- uninvolved Skin (GSE22998/(GPL570)), not matching retinol palmitate", "result": 0.075},
      {"measurement": "GEO match Stat", "setting": "[1]; vivo116 eschars in mediterranean spotted fever -VS- NN Skin (GSE32993/GPL6480), not matching retinol palmitate", "result": 0.097},
      {"measurement": "GEO match Stat", "setting": "[1]; vivo118 narrow-band UVB 24 hrs -VS- uninvolved skin (GSE41078/GPL571)", "result": "−0.116"},
      {"measurement": "GEO match Stat", "setting": "[1]; vivo120 atopic dermatitis chronic -VS- uninvolved skin (GSE36842/GPL570), not matching retinol palmitate", "result": 0.125},
      {"measurement": "stability under UVB irradiation (HPLC-MS)", "setting": "[2]", "result": "no difference in mass of the peaks"}
    ]}
  ]
}
